{"source": "patent EP2601945A1", "about": "(Thomale, Jürgen, priority 2011, dated 2013)", "test_system": "Pt-GG adducts in DNA", "experiment": "In vivo screening for cis-platin uptake inhibitors and DPH co-administration, ICA of Pt-GG adducts", "parameters": "species or system mice", "settings": "24 h; for inhibition of DNA platination in the three target cell types: independent of dosing (quinine 100 or 50 mg/kg, butylscopolamine 20 or 10 mg/kg) i.p. 1 h before cis-platin 10 mg/kg", "experimental": "The sacrificed animals were immediately dissected. Kidneys and lungs were submerged in embedding medium (Tissue-Tek O.C.T. Compound) and frozen in liquid nitrogen. Cochleae were dissected and fixed by intralabyrinthine perfusion with Carnoy's solution (3 hours; for DNA adduct staining) or with formaldehyde (4 % in PBS; 1 hour; for OCT protein staining). Cochleae were decalcified in EDTA solution (10 % w/v in PBS) for 3 days and then placed in sucrose solutions (5 % in PBS for 12 hours and 15 % in PBS for 5 hours). After that samples were imbedded in Tissue-Tek medium, frozen and cryosections of 10 µm cut.\nFrozen tissue sections of the inner ear or kidneys on ImmunoSelect slides were fixed in methanol at -20°C for at least 2 hours or overnight and then rehydrated for 10 minutes in PBS, at room temperature. To provide better antibody penetration in the tissue structures the samples underwent alkaline permeabilisation of cytoplasmic and nuclear membranes for 5 minutes at 0°C, followed by washing in PBS at room temperature for 5 minutes. The proteolytic cleavage of cytoplasmic and nuclear proteins was performed in two steps. At first, a pre-warmed pepsin solution (60 µg /ml for cell culture or 100 µg/ml for tissue sections in PBS/HCl) was applied onto the tissue sections and incubated for 10 minutes at 37°C in a humidified chamber. The incubation with pepsin was followed by washing in PBS for 10 minutes at room temperature. In a second step tissue sections were incubated with pre-warmed proteinase K solution (40 µg/ml for cell cultures or 50-100 µg /ml for tissue sections in proteinase K buffer) for 10 minutes at 37°C in a humidified chamber. Subsequently the sections were washed in 0.2 % glycine in PBS for 10 minutes at room temperature. Non-specific binding of the antibodies was inhibited by incubation with a blocking solution of 1 % casein in PBS for 30 minutes at room temperature. The samples were then incubated with a monoclonal antibody (R-C18, Liedert et al., 2006) specific for Pt-GG adducts in DNA (0.1 µg/ml in 0.1 % BSA/PBS) over night at 4°C in the humidified chamber. Subsequently, the slides were washed in 0.05 % Tween 20 in PBS for 5 minutes at room temperature and then in PBS for 5 minutes. The incubation with secondary Cy3-labeled rabbit anti-(rat Ig) antibodies, was performed (0.2 µg/ml in 0.1 % BSA/PBS) for 60 minutes at 37°C in the humidified chamber, followed by washing in 0.05 % Tween 20 in PBS for 5 minutes at room temperature and then in PBS for 5 minutes. The nuclear DNA was counterstained with DAPI (1 µg/ml in PBS) for 30 minutes at room temperature. The slides were then washed in PBS. Finally, the samples were embedded with a densification compound \"[…]\". The quantification of immuno- and DNA-fluorescence was performed by means of a microscope-coupled digital image analysis system ACAS 6.0 Cytometry Analysis System. Adduct levels in the nuclear DNA of individual cells were calculated by normalizing antibody-derived fluorescence signals to the corresponding DNA content of the same nucleus, and were expressed as arbitrary fluorescence units (AFUs). Data were assigned to specific cell types as determined by histochemistry.\nThe mice were separated into two groups for pretreatment with low or high doses of the test compounds. […] The low dose group received half the dose of the high dose group (50, 50, 30 or 10 mg/kg, respectively). […] Cochleae and kidneys were dissected for immunostaining and ICA analyses of Pt-GG adduct levels in specific cell types (Figure 8). In tissue sections from mice pretreated with quinine or butylscopolamine no inhibition of DNA platination was observed, independent of the dosing, in either of the three target cell types (renal tubulus epithelium cells (Figure 8 A), cochlear marginal cells (Figure 8B) and outer hair cells (Figure 8 C)). […]", "data": [{"compound": "C=C[C@H]1C[N@@]2CC[C@H]1C[C@H]2[C@H](O)c1ccnc2ccc(OC)cc12", "note": "[quinine]", "values": [{"measurement": "inhibition of DNA platination in the three target cell types", "value": "no inhibition"}]}, {"compound": "CNC(=C[N+](=O)[O-])NCCSCc1ccc(CN(C)C)o1", "note": "[ranitidine]", "values": [{"measurement": "reduction of adduct levels in all three target cell types", "setting": "high dose (ranitidine 100 mg/kg) i.p. 1 h before cis-platin 10 mg/kg, renal tubulus epithelium, cochlear marginal and outer hair cells", "value": "15 - 20%"}]}, {"compound": "CCCC[N+]1(C)[C@@H]2C[C@@H](OC(=O)[C@H](CO)c3ccccc3)C[C@H]1[C@@H]1O[C@@H]12", "note": "(stereo partly drawn) [butylscopolamine]", "values": [{"measurement": "inhibition of DNA platination in the three target cell types", "value": "no inhibition"}]}]}
